The text below walks through data of US20250114356A1, “INDAZOLE BASED COMPOUNDS AND ASSOCIATED METHODS OF USE” (Arvinas Operations, Inc., priority 2020, published 2025).

Usually DC50 stands for the concentration giving 50% degradation. By Dmax is commonly meant the largest share of the target that was removed.

Experiment [1] deals with T1, G2019S LRRK2 (Homo sapiens, UniProt Q5S007, G2019S).
T1 construct: expressed in transfected cells; host or cells: HEK293 (ATCC CRL-1573), transient transfection, ubiquitin promoter
T1 sequence (Q5S007 whole entry G2019S): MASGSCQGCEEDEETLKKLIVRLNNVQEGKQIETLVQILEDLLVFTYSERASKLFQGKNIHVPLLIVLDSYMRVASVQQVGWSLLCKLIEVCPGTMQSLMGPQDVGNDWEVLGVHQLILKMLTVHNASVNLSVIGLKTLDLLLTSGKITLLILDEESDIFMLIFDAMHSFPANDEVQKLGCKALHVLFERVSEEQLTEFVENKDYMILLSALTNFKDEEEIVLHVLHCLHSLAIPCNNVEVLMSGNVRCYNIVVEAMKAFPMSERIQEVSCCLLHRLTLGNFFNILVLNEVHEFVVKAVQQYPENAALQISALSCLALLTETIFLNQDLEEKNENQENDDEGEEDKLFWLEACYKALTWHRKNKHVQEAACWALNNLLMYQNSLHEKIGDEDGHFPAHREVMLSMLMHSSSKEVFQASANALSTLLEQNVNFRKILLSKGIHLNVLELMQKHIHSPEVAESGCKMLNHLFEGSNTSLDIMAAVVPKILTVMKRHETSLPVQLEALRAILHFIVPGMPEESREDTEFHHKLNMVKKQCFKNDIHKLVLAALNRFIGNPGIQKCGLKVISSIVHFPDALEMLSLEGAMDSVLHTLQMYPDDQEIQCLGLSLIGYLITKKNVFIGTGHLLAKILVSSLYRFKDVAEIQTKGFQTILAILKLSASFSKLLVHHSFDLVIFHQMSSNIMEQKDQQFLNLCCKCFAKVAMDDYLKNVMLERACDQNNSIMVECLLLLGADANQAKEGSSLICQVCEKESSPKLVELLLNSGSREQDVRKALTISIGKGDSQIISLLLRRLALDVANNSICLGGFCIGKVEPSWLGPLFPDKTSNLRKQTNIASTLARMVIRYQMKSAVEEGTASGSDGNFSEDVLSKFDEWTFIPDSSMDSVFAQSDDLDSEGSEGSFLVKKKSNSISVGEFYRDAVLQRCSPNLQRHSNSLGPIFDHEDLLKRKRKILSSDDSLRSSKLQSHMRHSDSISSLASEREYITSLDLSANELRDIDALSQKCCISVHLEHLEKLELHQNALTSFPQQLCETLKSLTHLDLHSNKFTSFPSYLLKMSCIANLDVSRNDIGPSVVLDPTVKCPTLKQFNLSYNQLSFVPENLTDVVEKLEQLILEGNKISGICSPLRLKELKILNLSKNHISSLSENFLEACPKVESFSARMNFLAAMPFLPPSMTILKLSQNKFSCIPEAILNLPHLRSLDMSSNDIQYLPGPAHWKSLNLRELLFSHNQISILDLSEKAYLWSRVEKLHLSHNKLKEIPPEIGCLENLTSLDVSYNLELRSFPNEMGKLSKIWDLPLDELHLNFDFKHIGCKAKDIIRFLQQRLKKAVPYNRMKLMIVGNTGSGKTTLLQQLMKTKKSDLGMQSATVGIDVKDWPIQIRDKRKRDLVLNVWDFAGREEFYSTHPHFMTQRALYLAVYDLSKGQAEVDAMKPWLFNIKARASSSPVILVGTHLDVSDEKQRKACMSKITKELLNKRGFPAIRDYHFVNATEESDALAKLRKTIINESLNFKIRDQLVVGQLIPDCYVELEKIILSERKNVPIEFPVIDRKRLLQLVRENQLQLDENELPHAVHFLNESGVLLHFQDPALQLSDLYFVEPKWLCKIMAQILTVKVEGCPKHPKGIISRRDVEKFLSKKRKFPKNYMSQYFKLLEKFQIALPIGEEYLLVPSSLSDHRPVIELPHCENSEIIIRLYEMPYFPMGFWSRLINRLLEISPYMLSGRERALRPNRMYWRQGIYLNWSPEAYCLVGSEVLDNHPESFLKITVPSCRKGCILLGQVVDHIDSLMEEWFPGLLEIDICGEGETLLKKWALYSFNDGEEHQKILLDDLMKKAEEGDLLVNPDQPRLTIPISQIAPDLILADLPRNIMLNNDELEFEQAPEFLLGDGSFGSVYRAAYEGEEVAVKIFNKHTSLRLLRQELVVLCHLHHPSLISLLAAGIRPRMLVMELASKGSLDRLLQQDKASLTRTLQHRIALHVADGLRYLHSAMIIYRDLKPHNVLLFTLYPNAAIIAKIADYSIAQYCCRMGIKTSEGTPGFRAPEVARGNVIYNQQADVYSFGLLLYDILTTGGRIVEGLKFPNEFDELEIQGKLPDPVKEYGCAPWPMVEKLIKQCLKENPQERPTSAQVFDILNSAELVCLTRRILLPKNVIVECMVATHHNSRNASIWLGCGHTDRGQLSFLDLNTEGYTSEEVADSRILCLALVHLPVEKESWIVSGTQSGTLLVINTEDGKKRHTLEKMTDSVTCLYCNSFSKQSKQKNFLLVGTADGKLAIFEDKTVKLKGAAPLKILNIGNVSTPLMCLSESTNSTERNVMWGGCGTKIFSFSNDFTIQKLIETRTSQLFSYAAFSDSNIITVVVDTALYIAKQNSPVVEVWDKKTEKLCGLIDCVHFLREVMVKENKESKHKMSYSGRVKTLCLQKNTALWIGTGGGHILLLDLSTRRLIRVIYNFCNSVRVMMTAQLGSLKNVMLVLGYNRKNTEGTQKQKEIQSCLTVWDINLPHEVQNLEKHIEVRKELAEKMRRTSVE
The experiment can be described thus: LRRK2 degradation assay, G2019S LRRK2-HiBit expressed from plasmid in HEK293 cells. Format: cell-based. To be noted: HEK293 cells transfected with HiBit-tagged G2019S LRRK2, 24 hours compound incubation. Summed up:
(§1)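 DC50 and Dmax derived from per-plate curve fits of LRRK2-HiBit signal over firefly luciferase (cell number/viability), as % of DMSO median, from 6 replicates across two days. Compound exposure was 24 hours at 37° C. in HEK293 cells transfected with wild-type or G2019S LRRK2 bearing a C-terminal HiBit tag.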
Background: With HiBiT, luminescence reflects the tagged protein that the partner subunit can reach.

The target in experiment [2] is T2, wildtype LRRK2 (Homo sapiens, UniProt Q5S007).
T2 construct: expressed in transfected cells; host or cells: HEK293 (ATCC CRL-1573), transient transfection, ubiquitin promoter
T2 sequence (Q5S007 whole entry): as the sequence (Q5S007 whole entry G2019S) above, with S2019G counted along it
The experiment can be described thus: LRRK2 degradation assay, wildtype LRRK2-HiBit expressed from plasmid in HEK293 cells. Format: cell-based. The note with it: HEK293 cells transfected with HiBit-tagged wildtype LRRK2, 24 hours compound incubation; for Dmax: read-out: **WT Dmax (%); for DC50: read-out: *WT DC50. Summed up:
as §1

In experiment [1], `CC(C)Oc1ccc2[nH]nc(-c3cc(N4CCN(CCOCCOCCOCCOc5ccc6c(c5)C(=O)N(C5CCC(=O)NC5=O)C6=O)[C@@H](C)C4)ncn3)c2c1` (stereo partly drawn) [compound 9, 2-(2,6-dioxopiperidin-3-yl)-5-{2-[2-(2-{2-[(2S)-2-methyl-4-{6-[5-(propan-2-yloxy)-1H-indazol-3-yl]pyrimidin-4-yl}piperazin-1-yl]ethoxy}ethoxy)ethoxy]ethoxy}-2,3-dihydro-1H-isoindole-1,3-dione] displayed a DC50 of no less than 0.1 µM and a Dmax of less than 50%. In addition, in experiment [2], the Dmax was less than 50% and the DC50 was no less than 0.1 µM.

As to `C[C@H]1CN(c2cc(-c3n[nH]c4ccc(OC5(C)CC5)cc34)ccn2)CCN1CCOCCOCCOCCOc1ccc2c(c1)C(=O)N(C1CCC(=O)NC1=O)C2=O` (stereo partly drawn) [compound 12, 2-(2,6-dioxopiperidin-3-yl)-5-{2-[2-(2-{2-[(2S)-2-methyl-4-{4-[5-(1-methylcyclopropoxy)-1H-indazol-3-yl]pyridin-2-yl}piperazin-1-yl]ethoxy}ethoxy)ethoxy]ethoxy}-2,3-dihydro-1H-isoindole-1,3-dione], the DC50 in experiment [1] and in experiment [2] was less than 0.01 µM in each case. Also, the Dmax in experiment [1] and in experiment [2] was no less than 70% in each case.

In experiment [1], `C[C@H]1CN(c2cc(-c3n[nH]c4ccc(OC5(C)CC5)cc34)ncn2)CCN1CCOCCOc1ccc2c(c1)C(=O)N(C1CCC(=O)NC1=O)C2=O` (stereo partly drawn) [compound 2, 2-(2,6-dioxopiperidin-3-yl)-5-(2-{2-[(2S)-2-methyl-4-{6-[5-(1-methylcyclopropoxy)-1H-indazol-3-yl]pyrimidin-4-yl}piperazin-1-yl]ethoxy}ethoxy)-2,3-dihydro-1H-isoindole-1,3-dione] displayed a DC50 of less than 0.01 µM and a Dmax of less than 50%. Besides, in experiment [2], the Dmax is 50 to 70% and the DC50 is less than 0.01 µM.

Turning to `CC(C)Oc1ccc2[nH]nc(-c3cc(N4CCN(CCC5CCN(CC6CCN(c7ccc8c(c7)C(=O)N(C7CCC(=O)NC7=O)C8=O)CC6)CC5)CC4)ncn3)c2c1` (centres unmarked) [compound 41, 2-(2,6-dioxopiperidin-3-yl)-5-(4-((4-(2-(4-(6-(5-isopropoxy-1H-indazol-3-yl)pyrimidin-4-yl)piperazin-1-yl)ethyl)piperidin-1-yl)methyl)piperidin-1-yl)isoindoline-1,3-dione], the DC50 in experiment [1] and in experiment [2] was 0.01 to 0.05 µM throughout. For the same molecule, the Dmax in experiment [1] and in experiment [2] was 50 to 70% throughout.

Regarding `CC(C)Oc1ccc2[nH]nc(-c3cc(N4CCN(CCN5CC6(CN(CCOc7ccc8c(c7)C(=O)N(C7CCC(=O)NC7=O)C8=O)C6)C5)[C@@H](C)C4)ncn3)c2c1` (stereo partly drawn) [compound 35, 2-(2,6-dioxopiperidin-3-yl)-5-[2-(6-{2-[(2S)-2-methyl-4-{6-[5-(propan-2-yloxy)-1H-indazol-3-yl]pyrimidin-4-yl}piperazin-1-yl]ethyl}-2,6-diazaspiro[3.3]heptan-2-yl)ethoxy]-2,3-dihydro-1H-isoindole-1,3-dione], in experiment [1], the DC50 lay within 0.05 to 0.1 µM and the Dmax is less than 50%. In addition, in experiment [2], the Dmax is less than 50% and the DC50 lay within 0.05 to 0.1 µM.

In experiment [1], `C[C@@H]1CN(c2cc(-c3n[nH]c4ccc(OC5(C)CC5)cc34)ncn2)C[C@H](C)N1CCOCCOCCOCCOc1ccc2c(c1)C(=O)N(C1CCC(=O)NC1=O)C2=O` (stereo partly drawn) [compound 7, 5-{2-[2-(2-{2-[(2R,6S)-2,6-dimethyl-4-{6-[5-(1-methylcyclopropoxy)-1H-indazol-3-yl]pyrimidin-4-yl}piperazin-1-yl]ethoxy}ethoxy)ethoxy]ethoxy}-2-(2,6-dioxopiperidin-3-yl)-2,3-dihydro-1H-isoindole-1,3-dione] gave a DC50 of less than 0.01 µM and a Dmax of 50 to 70%. In addition, in experiment [2], the greatest degradation seen (Dmax) is no less than 70% and the DC50 is less than 0.01 µM.

In experiment [1], `CC(C)Oc1ccc2[nH]nc(-c3cc(N4CCN(CCN5CCN(CC6CCN(c7ccc8c(c7)C(=O)N(C7CCC(=O)NC7=O)C8=O)CC6)CC5)CC4)ncn3)c2c1` (centres unmarked) [compound 39, 2-(2,6-dioxopiperidin-3-yl)-5-(4-((4-(2-(4-(6-(5-isopropoxy-1H-indazol-3-yl)pyrimidin-4-yl)piperazin-1-yl)ethyl)piperazin-1-yl)methyl)piperidin-1-yl)isoindoline-1,3-dione] registered a DC50 of 0.01 to 0.05 µM and a Dmax of no less than 70%. Further, in experiment [2], the Dmax was no less than 70% and the DC50 is less than 0.01 µM.

Regarding `CC(C)Oc1ccc2[nH]nc(-c3cc(N4CCN(CCN(C)CCCN5CCN(c6ccc7c(c6)C(=O)N(C6CCC(=O)NC6=O)C7=O)CC5)[C@@H](C)C4)ncn3)c2c1` (stereo partly drawn) [compound 36, 2-(2,6-dioxopiperidin-3-yl)-5-(4-{3-[methyl({2-[(2S)-2-methyl-4-{6-[5-(propan-2-yloxy)-1H-indazol-3-yl]pyrimidin-4-yl}piperazin-1-yl]ethyl})amino]propyl}piperazin-1-yl)-2,3-dihydro-1H-isoindole-1,3-dione], the DC50 in experiment [1] and in experiment [2] was 0.01 to 0.05 µM throughout. For the same molecule, the Dmax in experiment [1] and in experiment [2] was no less than 70% each time.

With `CC(C)Oc1ccc2[nH]nc(-c3cc(N4CCN(CCN5CC(OCCOc6ccc7c(c6)C(=O)N(C6CCC(=O)NC6=O)C7=O)C5)[C@@H](C)C4)ncn3)c2c1` (stereo partly drawn) [compound 32, 2-(2,6-dioxopiperidin-3-yl)-5-{2-[(1-{2-[(2S)-2-methyl-4-{6-[5-(propan-2-yloxy)-1H-indazol-3-yl]pyrimidin-4-yl}piperazin-1-yl]ethyl}azetidin-3-yl)oxy]ethoxy}-2,3-dihydro-1H-isoindole-1,3-dione], the DC50 in experiment [1] and in experiment [2] was no less than 0.1 µM each time. For the same molecule, the Dmax in experiment [1] and in experiment [2] was less than 50% throughout.

Consider `C[C@H]1CN(c2cc(-c3[nH]nc4ccc(OC5(C)CC5)cc34)ncn2)CCN1CCOc1ccc2c(c1)C(=O)N(C1CCC(=O)NC1=O)C2=O` (stereo partly drawn) [compound 1, 2-(2,6-dioxopiperidin-3-yl)-5-{2-[(2S)-2-methyl-4-{6-[5-(1-methylcyclopropoxy)-1H-indazol-3-yl]pyrimidin-4-yl}piperazin-1-yl]ethoxy}-2,3-dihydro-1H-isoindole-1,3-dione], for which the 50% degradation concentration (DC50) in experiment [1] and in experiment [2] was less than 0.01 µM in each case. For the same molecule, the greatest degradation seen (Dmax) in experiment [1] and in experiment [2] was less than 50% in each case.

In experiment [1], `CC(C)Oc1ccc2[nH]nc(-c3cc(N4CCO[C@H](CN5CCN(CC6CCN(c7ccc8c(c7)C(=O)N(C7CCC(=O)NC7=O)C8=O)CC6)CC5)C4)ncn3)c2c1` (stereo partly drawn) [compound 48, 2-(2,6-dioxopiperidin-3-yl)-5-(4-((4-(((R)-4-(6-(5-isopropoxy-1H-indazol-3-yl)pyrimidin-4-yl)morpholin-2-yl)methyl)piperazin-1-yl)methyl)piperidin-1-yl)isoindoline-1,3-dione] came in with a DC50 of less than 0.01 µM and a Dmax of 50 to 70%. Besides, in experiment [2], the Dmax fell in the range of 50 to 70% and the DC50 was less than 0.01 µM.

In the case of `CC(C)Oc1ccc2[nH]nc(-c3ccnc(N4CCN(CCOCCOCCOCCOc5ccc6c(c5)C(=O)N(C5CCC(=O)NC5=O)C6=O)[C@@H](C)C4)c3)c2c1` (stereo partly drawn) [compound 11, 2-(2,6-dioxopiperidin-3-yl)-5-{2-[2-(2-{2-[(2S)-2-methyl-4-{4-[5-(propan-2-yloxy)-1H-indazol-3-yl]pyridin-2-yl}piperazin-1-yl]ethoxy}ethoxy)ethoxy]ethoxy}-2,3-dihydro-1H-isoindole-1,3-dione], in experiment [1], the DC50 fell in the range of 0.01 to 0.05 µM and the Dmax lay within 50 to 70%. Moreover, in experiment [2], the greatest degradation seen (Dmax) was in the range of 50 to 70% and the DC50 is no less than 0.1 µM.

In experiment [1], `CC(C)Oc1ccc2[nH]nc(-c3cc(N4CCN(CCN5CCC(CN6CCN(c7ccc8c(c7)C(=O)N(C7CCC(=O)NC7=O)C8=O)CC6)CC5)CC4)ncn3)c2c1` (centres unmarked) [compound 27, 2-(2,6-dioxopiperidin-3-yl)-5-[4-({1-[2-(4-{6-[5-(propan-2-yloxy)-1H-indazol-3-yl]pyrimidin-4-yl}piperazin-1-yl)ethyl]piperidin-4-yl}methyl)piperazin-1-yl]-2,3-dihydro-1H-isoindole-1,3-dione] showed a DC50 of less than 0.01 µM and a Dmax of no less than 70%. For the same molecule, in experiment [2], the Dmax is no less than 70% and the DC50 is less than 0.01 µM.

Regarding `CC(C)Oc1ccc2[nH]nc(-c3cc(N4CCN(CCCCN5CCN(c6ccc7c(c6)C(=O)N(C6CCC(=O)NC6=O)C7=O)CC5)[C@@H](C)C4)ncn3)c2c1` (stereo partly drawn) [compound 23, 2-(2,6-dioxopiperidin-3-yl)-5-(4-{4-[(2S)-2-methyl-4-{6-[5-(propan-2-yloxy)-1H-indazol-3-yl]pyrimidin-4-yl}piperazin-1-yl]butyl}piperazin-1-yl)-2,3-dihydro-1H-isoindole-1,3-dione], in experiment [1], the half-maximal degradation concentration (DC50) is less than 0.01 µM and the greatest degradation seen (Dmax) is 50 to 70%. Moreover, in experiment [2], the Dmax was 50 to 70% and the DC50 is less than 0.01 µM.
